Measurements: ChEMBL document CHEMBL5360641, “4'-Ethynyl-2'-deoxy-2'-β-fluoro-2-fluoroadenosine: A Highly Potent and Orally Available Clinical Candidate for the Treatment of HIV-1 Infection” (J Med Chem, 2023)

Key:
[1] = tested on: Human immunodeficiency virus 1; experiment: Antiviral activity against HIV1 VSV-G pseudotyped virus infected in human HEK293T cells assessed as inhibition of viral growth preincubated for 3 hrs followed by washout and further incubated with compound for 72 hrs by luciferase assay; assay type: functional, organism-based; details: Human immunodeficiency virus 1, HEK-293T
[2] = Selectivity index, ratio of CC50 for cytotoxicity against HEK293T cells assessed as reduction in cell viability by MTT assay to EC50 for antiviral activity against HIV1 VSV-G pseudotyped virus infected in human HEK293T cells assessed as inhibition of viral growth; assay type: toxicity, cell-based; details: read-out: Ratio CC50/EC50
[3] = Cytotoxicity against HEK293T cells assessed as reduction in cell viability by MTT assay; assay type: toxicity, cell-based, HEK-293T; details: human

| SMILES | EC50 [1] [nM] | selectivity ratio [2] | CC50 [3] [nM] |
| --- | --- | --- | --- |
| [N-]=[N+]=N[C@]1(CO)O[C@@H](n2cnc3c(N)nc(F)nc32)[C@@H](F)[C@@H]1O | 1.99 | > 50300 | > 100000 |
| C#C[C@]1(CO)O[C@@H](n2cnc3c(N)ncnc32)[C@@H](F)[C@@H]1O | 2.3 | 24600 | 56500 |
